Measured values reported in patent US4898861A, “Method for inhibiting the proliferation of tumor cells” (Hoffmann-La Roche Inc., priority 1988, dated 1990).
Like-named read-outs stand apart in the source and are kept apart here.

Columns and labels:
[1] = tested on: DS 19 Friend erythroleukemia cell line (FEL); assay: Induction of differentiation of FEL cells (hemoglobin synthesis, benzidine staining); format: cell-based, mouse; details: for EC50 / EC20 / EC10: Mus musculus, 120 h, 5 days; for EC50: read-out: ED50 (concentration required to induce 50% of the FEL cells); for EC20: read-out: ED20 (concentration required to induce 20% of the FEL cells); for EC10: read-out: ED10 (concentration required to induce 10% of the FEL cells)
Protocol: A DS 19 Friend erythroleukemia cell line (FEL) was utilized as the model for studying the effects of various benzodiazepines on cellular differentiation. The Friend lines were derived from mouse (DBA/2) spleen cells infected by the Friend virus complex. The FEL cells are a widely used model system for studying differentiation. […] The protocol utilized consisted of the benzidine staining method. Cells were seeded at 1×10^4 ml and incubated with inducers in Coster Culture Clusters ([…]) for 5 days. On the 5th day, two hundred (200) μl aliquots of cells were mixed with 100 μl of 0.2% benzidine dihydrochloride in 0.5N acetic acid with 1% of 30% H2 O2. Cells that stained blue were scored in a hemacytometer as a % of total cell number.
(§1) Of twenty five (25) of the benzodiazepines tested it was observed that sixteen induced differentiation (weakly to strongly active) in a concentration-dependent manner. The concentration of each compound required to induce 50%, 20% or 10% of the FEL cells along with the half-maximal concentrations for each compound required to inhibit 50% of the binding of 7-chloro-5-(4-chlorophenyl)-1,3-dihydro-1-methyl-2H-1,4-benzodiazepine-2-one to the FEL cells (IC50) is listed in the following table: […]

[2] = target: T1, peripheral-type benzodiazepine sites on FEL cells (Mus musculus, UniProt P50637); assay: Inhibition of binding of 7-chloro-5-(4-chlorophenyl)-1,3-dihydro-1-methyl-2H-1,4-benzodiazepine-2-one to FEL cells
T1 construct: endogenous in cells; host or cells: DS 19 Friend erythroleukemia cell line (FEL)
T1 sequence (P50637 whole entry): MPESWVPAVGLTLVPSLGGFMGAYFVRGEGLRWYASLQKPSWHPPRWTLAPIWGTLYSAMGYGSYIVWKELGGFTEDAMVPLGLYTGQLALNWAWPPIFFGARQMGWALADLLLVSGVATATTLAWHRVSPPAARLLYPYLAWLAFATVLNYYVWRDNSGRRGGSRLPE
Source text: as §1

Swiss 3T3 cells = details: Clarke and Ryan, Nature 287, 160-161 (1980), read-out: ED50 (inhibition of proliferation); cited from earlier work
[3] = target: T2, peripheral binding site on thymoma cells (Mus musculus, UniProt P50637); assay: Binding of tritiated 7-chloro-5-(4-chlorophenyl)-1,3-dihydro-1-methyl-2H-1,4-benzodiazepin-2-one to thymoma cells (saturation, association, dissociation)
T2 construct: host or cells: AKR mouse thymoma line BW 5147.6.1.4.Oua^r.1; (washed cells in BGS buffer)
T2 sequence (P50637 whole entry): as above
Protocol: Thymoma cells, AKR mouse thymoma line, BW 5147.6.1.4.Oua^r.1.(Cell Distribution Center, Salk Institute, San Diego, Calif.), were grown in Iscove's Modified Dulbecco's Medium (IMDM) containing 5 percent fetal calf serum, collected by centrifugation at 100×g and washed in Balanced Glucose Salt (BGS) buffer, the composition of which is: KCl, 5.0 mM; NaCl, 120.0 mM; Na2 HPO4, 5.0 mM; Tris, 5.0 mM; CaCl2, 0.6 mM; MgSO4, 1.0 mM and glucose, 5.5 mM with a final pH of 7.4. Incubation and binding of tritiated 7-chloro-5-(4-chlorophenyl)-1,3-dihydro-1-methyl-2H-1,4-benzodiazepin-2-one to thymoma cells was carried out in BGS buffer at 0° C. for 40 minutes with the indicated concentrations of labeled ligand. To assay the binding, the rapid filtration method was utilized as outlined in the article of Taniguchi et al., Life Science, 27, 171-178 (1980) and 10 μM of unlabeled diazepam was used as the competitive inhibitor of binding to determine the nonspecific binding. A Saturation and Scratchard plot of the binding data using least square fit to define the regression line (r=0.97) was utilized (FIG. 1 and Insert).

[4] = target: T2, peripheral binding site on thymoma cells; assay: Inhibition of tritiated diazepam binding to thymoma cells
[5] = FEL cells, compounds 1-12, read-out: IC50 (inhibition of binding to FEL cells)
[6] = stereoisomers, equivalent IC50's, read-out: IC50
[7] = FEL cells, compounds 13-16, in μM, read-out: IC50 (inhibition of binding to FEL cells)

Row | Compound | EC50 [1] [nM] | EC20 [1] [nM] | IC50 [2, 5] [µM] | other results
1 | CN1C(=O)CN=C(c2ccccc2)c2cc(Cl)ccc21 [Compound 4, diazepam, reference compound] | 55000 | – | – | IC50 ([2]; IC50 (inhibition of binding to FEL cells), FEL cells, compounds 1-12): 0.079 µM; IC50 (Swiss 3T3 cells): ~30000 nM
2 | CN1C(=O)CN=C(c2ccc(F)cc2)c2ccccc21 [Compound 12, 1-methyl-5-(4-fluorophenyl)-3H--1,4-benzodiazepin-2(1H)--one] | – | 100000 | 0.327 | –
3 | CN1C(=O)C(O)N=C(c2ccc(Cl)cc2)c2cc(Cl)ccc21 (stereo not drawn) [Compound 11, 7-chloro-5-(4-chlorophenyl)-3-hydroxy-1,3-dihydro-1-methyl-2H--1,4-benzodiazepin-2-one] | – | 45000 | 0.02 | –
4 | C[C@H]1N=C(c2ccccc2F)c2cc([N+](=O)[O-])ccc2N(C)C1=O [Compound 9, (-)-5-(2-fluorophenyl)-1,3-dihydro-1,3-dimethyl-7-nitro-2H--1,4-benzodiazepin-2-one] | – | 86000 | 1.04 | induction of differentiation (in words) [1]: moderately active; IC50 [2, 6]: ~1 µM
5 | CN1C(=O)CN=C(c2ccc(Cl)cc2)c2ccccc21 [Compound 8, 5-(4-chlorophenyl)-1-methyl-3H--1,4-benzodiazepin-2(1H)--one] | – | 30000 | 0.054 | –
6 | COc1ccc(C2=NCC(=O)N(C)c3ccc(Cl)cc32)cc1 [Compound 3, 7-chloro-5-(4-methoxyphenyl)-1-methyl-3H--1,4-benzodiazepin-2-one] | 33000 | – | 0.015 | –
7 | CN1C(=O)CN=C(c2ccc(O)cc2)c2cc(Cl)ccc21 [Compound 2, 7-chloro-1,3-dihydro-5-(4-hydroxyphenyl)-1-methyl-2H--1,4-benzodiazepin-2-one] | 20000 | – | 0.1 | –
8 | CN1C(=O)CN=C(c2ccccc2Cl)c2cc(Cl)ccc21 [Compound 16, 7-chloro-5-(2-chlorophenyl)-1,3-dihydro-1-methyl-2H--1,4-benzodiazepin-2-one] | – | – | – | EC10 [1]: 60000 nM; IC50 [2, 7]: 0.011 µM
9 | CN1C(=O)CN=C(c2ccc(Cl)cc2)c2cc([N+](=O)[O-])ccc21 [Compound 14, 5-(4-chlorophenyl)-1-methyl-7-nitro-3H--1,4-benzodiazepin-2(1H)--one] | – | – | – | EC10 [1]: 60000 nM; IC50 [2, 7]: 0.034 µM
10 | CN1C(=O)CN=C(c2ccccc2)c2ccccc21 [Compound 6, 1,3-dihydro-1-methyl-5-phenyl-2H--1,4-benzodiazepin-2-one] | 80000 | – | 0.704 | –
11 | CN1C(=O)CN=C(c2ccc(Cl)cc2)c2cc(Cl)ccc21 [7-chloro-5-(4-chlorophenyl)-1,3-dihydro-1-methyl-2H-1,4-benzodiazepin-2-one] | – | – | – | Kd [3]: 4.4 ± 1.1 nM; time of incubation to reach binding plateau ([3]; 0° C.): 30 min; maximum amount of ligand bound (Bmax) ([3]; saturation plot, BGS buffer, 0° C., 40 minutes, mean±s.e., n=5): 477±98 fmoles per 10^6 cells
12 | O=C1CN=C(c2ccccc2Cl)c2cc([N+](=O)[O-])ccc2N1 [clonazepam, reference compound] | – | – | – | inhibition of tritiated diazepam binding ([4]; 10 μM final concentration): did not inhibit diazepam binding
13 | CN1C(=O)CN=C(c2ccccc2F)c2cc([N+](=O)[O-])ccc21 [Compound 13, 5-(2-fluorophenyl)-1,3-dihydro-1-methyl-7-nitro-2H--1,4-benzodiazepin-2-one] | – | – | – | EC10 [1]: 32000 nM; IC50 [2, 7]: 0.08 µM
14 | CN1C(=O)CN=C(c2ccccc2Cl)c2ccccc21 [Compound 15, 5-(2-chlorophenyl)-1-methyl-3H--1,4-benzodiazepin-2(1H)--one] | – | – | – | EC10 [1]: 60000 nM; IC50 [2, 7]: 0.175 µM
15 | CN1C(=O)CN=C(c2ccc(Cl)cc2)c2cc(F)ccc21 [Compound 7, 5-(4-chlorophenyl)-7-fluoro-1-methyl-3H--1,4-benzodiazepin-2(1H)--one] | – | 34000 | 0.013 | –
16 | CN1C(=O)CN=C(c2ccc(Cl)cc2)c2cc(Cl)ccc21 [Compound 10, 7-chloro-5-(4-chlorophenyl)-1,3-dihydro-1-methyl-2H--1,4-benzodiazepin-2-one] | – | 28000 | 0.006 | inhibition of tritiated diazepam binding ([4]; 200 nM unlabeled compound): completely inhibit the binding of tritiated diazepam
17 | C[C@@H]1N=C(c2ccccc2F)c2cc([N+](=O)[O-])ccc2N(C)C1=O [Compound 1, (+)-5-(2-fluorophenyl)-1,3-dihydro-1,3-dimethyl-7-nitro-2H--1,4-benzodiazepin-2-one] | 9000 | – | 1.1 | induction of differentiation (in words) [1]: most potent inducer tested; IC50 [2, 6]: ~1 µM
18 | CN1C(=O)C(O)N=C(c2ccccc2)c2cc(Cl)ccc21 (stereo not drawn) [Compound 5, 7-chloro-1,3-dihydro-3-hydroxy-1-methyl-5-phenyl-2H--1,4-benzodiazepin-2-one] | 80000 | – | 0.236 | –
